From a melting point compilation (Tetko et al.; mined from patent text by program, amines drawn as free bases though some values may be those of a salt)

melting point	Compound
265 °C	Cc1cc(=O)[nH]c(NC(=N)Nc2ccccc2)n1
172 to 175 °C	COC(=O)c1scc(-c2ccccc2)c1S(N)(=O)=O
143 to 145 °C	COc1nc(C)cnc1N(C(=O)OCC(C)C)S(=O)(=O)c1cccnc1-c1ccc(C)cc1
248 to 249 °C	COC(=O)C(C)(C)c1ccc(C(=O)Nc2cn3cc(-c4cn[nH]c4)ccc3n2)cc1
214 °C	CN(c1cccc2cc(C3=NCC4(CCN(CCO)CC4)S3)[nH]c12)S(=O)(=O)c1cccs1
192 °C	CC(C)(C)C(=O)N[C@H]1CC[C@H](CCN2CCC(c3cccc4c3CCO4)CC2)CC1
177 to 179 °C	CC(=O)c1ccc(NCc2cc3c(cc2O)CCCO3)cc1
167 to 169 °C	CC(=O)Oc1ccccc1C(=O)Nc1nc(S(C)=O)cs1 (stereo not drawn)
170 °C	COc1cc2c(cc1Nc1ncc(Cl)c(Nc3ccccc3S(=O)(=O)C(C)C)n1)CCN(CC(=O)N1CCN(C)CC1)CC2
116 to 117 °C	CCOC(=O)COc1ccccc1-c1nc2n(C3CCCC3)[nH]c(CC)c-2c(=O)n1
128 to 129 °C	CC1(C)OC(=O)C(OC2CCc3ccccc32)=C1c1ccc(S(C)(=O)=O)cc1 (stereo not drawn)
283 to 285 °C	N#Cc1ccc(NC(=O)c2cccc(S(=O)(=O)N3CCOCC3)c2)c(-c2n[nH]c(=O)o2)c1
160 to 168 °C	COc1nc(C)nc(NC(=O)NS(=O)(=O)c2cccc3c2OC(C)(C)O3)n1
112 to 113 °C	COC(=O)Cc1ccc(O)c(NC(=O)C(C)(C)C)c1
254 to 257 °C	CCCn1nc2c(N)nc3ncccc3c2c1CC(C)(C)C(N)=O
136 to 137 °C	COc1ccc(C=CC=O)cc1OCc1nc(-c2ccccc2)oc1C
175 to 177 °C	CCCCCC(CC(=O)Nc1cc(C(N)=O)ccc1C(C)(C)C)c1ccc(C)cc1OC (stereo not drawn)
101 to 102 °C	C=C(C)C(=O)Oc1ccc(CNS(C)(=O)=O)cc1
203 to 204 °C	C=CC1CN(c2ncc(C(=O)N(C)c3cccc(C(F)(F)F)c3)c(N)n2)C(=O)N1 (stereo not drawn)
108 to 111 °C	CN(C)C(=O)c1cccnc1S(=O)(=O)Br
188 to 190 °C	NC(=O)CNc1ncccc1NC(=O)c1ccccn1
126 to 127 °C	CCc1cccc2c3c([nH]c12)C(CC)(CCOC(C)=O)OCC3 (stereo not drawn)
130 to 131 °C	CCOC(=O)CNc1ncccc1NC(=O)c1ccc(OC)cc1
180 °C	COc1ccc(Br)c(C(=O)N2CCN(S(=O)(=O)c3ccccc3)CC2)c1
202 to 205 °C	Cc1ccc2c(c1)c(=O)c(S(C)=O)cn2C (stereo not drawn)
89 to 92 °C	CCN(CC)c1ccc(/C=C/C(=O)CC(=O)/C=C/c2ccc(O)c(OC)c2)c(O)c1
238 to 240 °C	O=C(O)COc1ccc2c(-c3cc([N+](=O)[O-])ccc3F)noc2c1Cl
230 to 232 °C	COc1ccc(C=Cc2nc3c(c(=O)n(C)c(=O)n3C)n2C)cc1OC
86 to 88 °C	CC(C)(C)OC(=O)c1cc(N=Nc2ccccc2CCC(=O)O)ccc1O
101 to 102 °C	Cc1cc(O)c(S(=O)(=O)CCC(C)C)c(=O)o1

More lines, now with the values behind:

Compound	melting point
S=C(NCc1cccc2ccccc12)N1CCc2c([nH]c3ccccc23)C1c1ccc2c(c1)OCO2 (stereo not drawn)	111 to 113 °C
CCOCC(=Nc1ccc(Cl)cc1C(F)(F)F)n1ccnc1	49 to 52 °C
CCOC(=O)CN(Cc1cc(F)ccc1[N+](=O)[O-])C(=O)C(F)(F)F	60 to 63 °C
O=C(c1ccccc1)c1ccc(N2CCC(N3Cc4ccccc4C3=O)CC2)cc1	173 to 175 °C
O=C(Nc1ccc(Br)cc1)c1ccccc1NCc1ccncc1	136 to 137 °C
Cc1ccc([C@@H]2c3c(C)c(N4C(=O)CC(c5ccc(F)cc5)CC4=O)c(C)c(C)c3OC2(C)C)cc1	151 to 154 °C
Cc1ccc(Cc2cnc(NCCCNc3ncc(Br)cc3C)[nH]c2=O)cn1	48 to 51 °C
CCOc1cc2c(cc1OCC)[C@@H]1CCCC[C@@H]1N=C2c1ccc(O)cc1 (racemic)	232 to 234 °C
COc1cccc2c1nc(C(F)F)n2-c1nc(-c2cncnc2)cc(N2CCOCC2)n1	222 to 224 °C
CC(c1ccccc1)n1ncc(-c2nc(-c3ccco3)n[nH]2)c1N (stereo not drawn)	175 to 176 °C
CN(C)C(=S)ON1C(=O)C2CCCCC2C1=O (stereo not drawn)	124 to 126 °C
N#Cc1ccc(C=NO)cc1	174 to 176 °C
CCOC(=O)CC(c1ccccc1)(c1ccccc1)c1ncc[nH]1	75 °C
CCCS(=O)(=O)N1CCC(c2nc3cc(-c4ccc(C(N)=O)c(F)c4)ccc3o2)CC1	222 to 225 °C
COc1ccncc1-c1ccc(OC2SCC(O)C(O)C2O)cn1 (stereo not drawn)	207 °C
c1ccc(CCn2ncc3c2ncn2nc(-c4ccco4)nc32)cc1	174 to 175 °C
C=C1COc2c(N3CCN(C)CC3)c(F)cc3c(=O)c(C(=O)O)cn1c23	200 to 201 °C
CCNC(=O)c1ccnc([N+](=O)[O-])c1	65 to 67 °C
O=C(Nc1cc(-c2cc(Nc3ccc(N4CCNCC4=O)cn3)c(=O)[nH]n2)ccc1F)c1cc2c(s1)CCCC2	285 to 287 °C
Cc1ccc(Sc2cc3c(cc2Sc2ccc(C)cc2)C(=O)c2c(c(O)c4cc(Sc5ccc(C)cc5)c(Sc5ccc(C)cc5)cc4c2O)C3=O)cc1	> 265 °C
CNc1nc(-c2ccccc2)c(-c2nc3ccccc3c(=O)n2-c2ccccc2Cl)s1	215 to 217 °C
Cc1ccc2c(=O)n3ccsc3nc2c1	174 to 178 °C
Cn1nc(-c2cccs2)n(C)c1=S	128 to 129 °C

Compound	melting point
CN1COCNC1=N[N+](=O)[O-]	137 to 139 °C
N#CN1CCC(Nc2ncc3ncnc(Nc4ccc(F)c(Cl)c4)c3n2)CC1	245 to 247 °C
CC(C)c1nc(C(C)C)c(CN2CCN(c3ccccc3)CC2)c(-c2ccc(F)cc2)c1CO	111 to 113 °C
N#CC=Cc1ccc(C=O)cc1	122 °C
COc1cc(CN[C@@H](C(=O)N[C@H](C(=O)NCc2ccc(OC)cc2O)C(C)C)[C@H](O)[C@H](Cc2ccccc2)NC(=O)OC(C)(C)C)cc(OC)c1	138 °C
N=C(N)N1CCc2[nH]cnc2C1	310 °C
CN1CCN(Cc2cc(C(=O)c3ccc(Cl)cc3)cc(C(C)(C)C)c2O)CC1	131 to 132 °C
O=S(=O)(CC1(c2ccccc2)CO1)c1ccccc1 (stereo not drawn)	89 °C
Cc1cc(F)ccc1-c1nc(OCCO)nc2c1CNC(=O)N2c1c(F)cccc1F	172 to 175 °C
Cc1nc(N)sc1S(=O)(=O)N1CCC(O)C1 (racemic)	165 °C
CC(=O)Oc1ccccc1C(=O)NC1CCN(CCCOc2ccccc2C#N)CC1	80 to 82 °C
Nc1ccc2ccc(Cl)cc2n1	175 °C
CN1CCc2cc(C#CCO)cc3c(=O)c(C(=O)NCc4ccc(Cl)cc4)cn1c23	165 to 167 °C
Cc1nnc2c3c(c(Cl)nn12)C1CCC3CC1	178 to 179 °C
Cc1cccc(C)c1NC(=O)CN1CCN(CC(O)CC(c2ccc(F)cc2)c2ccc(F)cc2)C(C(N)=O)C1 (stereo not drawn)	110 °C
O=C(c1ccc(Cl)cc1)c1c(CN2CCN(c3ccccc3)CC2)csc1N1C(=O)c2ccccc2C1=O	220 to 222 °C
CC(=O)Nc1ccc(CC[C@](O)(CC(=O)O)C(C)C)cc1	119 to 120 °C
Cn1c(CC(=O)O)ccc1C(=O)c1ccccc1	144 to 145 °C
CCCS(=O)(=O)N=C(N[N+](=O)[O-])SC	91 to 93 °C
O=c1[nH]nc2c3c(cccc13)Oc1ccc(COCCP(=O)(OCc3ccccc3)OCc3ccccc3)cc1-2	173 to 175 °C
c1cnn(Cc2ccc3c(c2)-c2[nH]nc(-c4ccsc4)c2C3)c1	245 to 247 °C
O=C1CC(c2ccc(C3CCCCCC3)cc2)C(=O)O1 (stereo not drawn)	102 to 104 °C
COC(=O)c1cc(-c2ccc(OCc3ccccc3)cc2)c(=O)n2ccc3ccsc3c12	169 to 171 °C

Compound	melting point
O[C@@H]1c2ccccc2CN2CCC[C@@H]12 (relative stereo)	131 to 133 °C
O=C1CCN(Cc2cc([N+](=O)[O-])ccc2O)CC1C(c1ccc(F)cc1)c1ccc(F)cc1 (stereo not drawn)	169 to 170 °C
CCOC(=O)CNC(=O)c1cc(F)c(F)cc1N	147 °C
O=C(O)c1csnc1-c1cccc(Cl)c1	215 to 216 °C
O=C(O)CCCc1ccc(C(Cc2ccccc2)NS(=O)(=O)c2ccc(Cl)cc2)cc1 (stereo not drawn)	152 to 153 °C
c1ccc(COc2cccc3c2nc2n3CCCO2)cc1	183 to 184 °C
CC1=C(C(=O)OCCOc2ccc(C(=O)c3ccccc3)c(O)c2)CC(C(=O)OCCOc2ccc(C(=O)c3ccccc3)c(O)c2)=C(C)N1	188 °C
CC(C)[C@H](NC(=O)[C@@H](C)c1ccc(Nc2nc(C(F)(F)F)cs2)cc1)C(=O)O	99 to 101 °C
Cc1nsc2cc(N)c([N+](=O)[O-])cc12	189 to 191 °C
O=c1[nH]c2ncc(-c3ccc(O)cc3)nc2n1CC1CCOC1 (stereo not drawn)	256 to 258 °C
COc1ccc(N(C=C(C#N)C#N)N=C(C#N)C#N)cc1	143 to 145 °C
CCCOc1ccccc1CCOc1ccc2c(c1)C=C(C(=O)Nc1ccc(CN(C)C3CCOCC3)cc1)CCS2(=O)=O	161 to 162 °C
CCSc1ccc(Cl)nc1C#N	79 to 81 °C
O=C1OC(=O)c2cc3ncccc3c3cc([N+](=O)[O-])cc1c23	> 300 °C
COC(=O)c1c(C(F)F)nc(C(F)(F)F)c(C(=O)OC)c1OC(C)C	41 to 42 °C
c1ccc(-c2nc3ccc(Cn4ccnc4)cc3nc2-c2ccccc2)cc1	159 °C
CC(C)C=Cc1c(C(C)C)nc(C(C)C)c(CO)c1-c1ccc(F)cc1	112 °C
N#Cc1ccc(NC(=O)CCC2CCCC(=O)O2)cc1 (stereo not drawn)	145 to 148 °C
N#Cc1ccc(Nn2cnnc2)cc1-c1ccc(C(F)(F)F)cc1	140 to 143 °C
CCCCc1oc2ccccc2c1C(=O)c1ccc(OCCN(CC)CC)c(I)c1	100 to 102 °C
CC(C)COP(C)(=O)CC(O)CN1C(=O)c2ccccc2C1=O (stereo not drawn)	110 to 113 °C
OCCCN1CCC(c2ccccc2)(c2ccccc2)CC1	97 °C
